IC50 data for 26 compounds are collected here from patent publication US11512097B2, “Heterocyclic compounds as Delta-5 desaturase inhibitors and methods of use” (Amgen Inc., priority 2019, dated 2022).

Each structure is given as a SMILES string.

The target of the test is T1, Delta-5-Desaturase (D5D), membrane preparations of D5D-overexpressing HEK293 6E cells (Homo sapiens, UniProt O60427).
T1 construct: expressed in transfected cells; host or cells: HEK293 6E cells (membrane preparation)
T1 sequence (O60427 whole entry, species assumed): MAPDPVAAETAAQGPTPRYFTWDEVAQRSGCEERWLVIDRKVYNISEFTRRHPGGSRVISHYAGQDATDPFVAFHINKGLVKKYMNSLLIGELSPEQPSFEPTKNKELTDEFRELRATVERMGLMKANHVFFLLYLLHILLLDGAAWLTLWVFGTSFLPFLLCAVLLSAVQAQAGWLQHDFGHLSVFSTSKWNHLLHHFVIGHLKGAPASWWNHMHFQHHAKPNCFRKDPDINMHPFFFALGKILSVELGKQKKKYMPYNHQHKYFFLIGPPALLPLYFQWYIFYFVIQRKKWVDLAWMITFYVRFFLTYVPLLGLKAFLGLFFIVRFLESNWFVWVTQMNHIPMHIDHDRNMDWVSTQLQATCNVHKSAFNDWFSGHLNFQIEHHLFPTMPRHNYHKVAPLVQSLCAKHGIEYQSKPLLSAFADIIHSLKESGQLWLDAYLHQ
Briefly: In vitro measurement of Delta-5-Desaturase inhibitory activity using DGLA-CoA and Arachidonyl-CoA mass spectrometric assays. Type of test: biochemical. The note with it: D5D membrane 10 μg/mL, one-hour incubation, average of at least two independent runs. How it is done: In Vitro Measurement of Delta-5-Desaturase Inhibitory Activity Using DGLA-CoA and Arachidonyl-CoA Mass Spectrometric Assays Membrane preparations of D5D-overexpressing HEK293 6E cells were prepared in which the total protein concentration was 5.6 mg/mL. Stock D5D membrane preparations were diluted in D5D assay buffer (25 mM 2-amino-2-(hydroxymethyl)-1,3-propanediol, pH 7.5 containing 10 mM MgCl2, 1 mM octyl glucoside (SigmaAldrich O-8001), 1 mM tris(2-carboxyethyl)phosphine hydrochloride (SigmaAldrich 646547)) to a final D5D membrane concentration of 10 μg/mL in an assay plate containing serially diluted test compounds. To 15 μL of this D5D preparation was added 15 μL of a substrate solution (0.25 mM NADH (nicotinamide adenine dinucleotide, Roche Diag. 10107735001), 0.25 mM adenosine triphosphate (SigmaAldrich A-3377), 0.05 mM coenzyme A hydrate (SigmaAldrich C-4282), and 0.01 mM DGLA (dihomo-g-linolenic acid, Sigma E-4504) in the same D5D assay buffer. After one-hour incubation at ambient temperature acetonitrile (30 μL) was added to quench the reaction and plates were centrifuged for 10 min @ 3,000 rpm. Mass spectrometric analysis involved a Rapidfire 360 SPE system coupled to an ABSciex API4000 Triple Quadrupole mass spectrometer using a C18 SPE cartridge (G9203-80105) with ionization in negative mode (solvent A=100% water; solvent B=100% acetonitrile, each solvent containing 5 mM ammonium acetate). DGLA-CoA and Arachidonyl-CoA were detected by multiple reaction monitoring (MRM) of the doubly charged parent ions at m/z 526.6 and 525.6, respectively. […] Sx is value from unknown sample, So is value from DMSO alone and Sc is value from no enzyme well. For CRC analysis, the % of inhibitions were analysed with 4 Parameter Logistic Model or Sigmoidal Dose-Response Model using XLfit (IDBS, Guilford, UK). The potency of the test item was expressed as IC50 nM, corresponding to the test item concentration able to inhibit the 50% of the enzyme maximal response. IC50 values were averaged values determined by at least two independent runs. The results presented in Table 15 have been generated with the in vitro assay described above. This assay may be used to test any of the compounds described herein to assess and characterize a compound's ability to inhibit D5D.
On to `COCc1nn2c(=O)c(-c3cnn(CCC(F)(F)F)c3)c(C(F)(F)F)nc2s1` [Example 10, 2-(methoxymethyl)-7-(trifluoromethyl)-6-[1-(3,3,3-trifluoropropyl)-1H-pyrazol-4-yl]-5H-[1,3,4]thiadiazolo[3,2-a]pyrimidin-5-one], for which inhibition was half-maximal at 27.4 nM (IC50). For the compound `Cc1cn2c(=O)c(-c3cnn(CC(F)(F)C(F)(F)F)c3)c(C(F)(F)F)nc2n1CC#N` [Example 86, 2-{2-methyl-5-oxo-6-[1-(2,2,3,3,3-pentafluoropropyl)-1H-pyrazol-4-yl]-7-(trifluoromethyl)-1H,5H-imidazo[1,2-a]pyrimidin-1-yl}acetonitrile], the concentration for half-maximal inhibition (IC50) was determined as 10.9 nM. `O=c1c(-c2cnn(CC(F)(F)C(F)(F)F)c2)c(C(F)(F)F)nc2sc(F)cn12` [Example 7, 2-fluoro-6-[1-(2,2,3,3,3-pentafluoropropyl)-1H-pyrazol-4-yl]-7-(trifluoromethyl)-5H-[1,3]thiazolo[3,2-a]pyrimidin-5-one]: inhibition was half-maximal at 1.3 nM (IC50).

In the case of `Cc1cn2c(=O)c(-c3cnn(CC(F)(F)C(F)(F)F)c3)c(C(F)(F)F)nc2n1C1COC1` [Example 91, 2-methyl-1-(oxetan-3-yl)-6-[1-(2,2,3,3,3-pentafluoropropyl)-1H-pyrazol-4-yl]-7-(trifluoromethyl)-1H,5H-imidazo[1,2-a]pyrimidin-5-one], the concentration for half-maximal inhibition (IC50) turned out to be 10.1 nM. Consider `Cn1cc(Cl)n2c(=O)c(-c3cnn(CC(F)(F)C(F)(F)F)c3)c(C(F)(F)F)nc12` [Example 44, 3-chloro-1-methyl-6-[1-(2,2,3,3,3-pentafluoropropyl)-1H-pyrazol-4-yl]-7-(trifluoromethyl)-1H,5H-imidazo[1,2-a]pyrimidin-5-one], for which the half-inhibitory concentration (IC50) worked out at 3210 nM. Compound `Cc1nn2c(=O)c(-c3cnn(CC4CC(F)(F)C4)c3)c(C(F)(F)F)nc2s1` [Example 26, 6-{1-[(3,3-difluorocyclobutyl)methyl]-1H-pyrazol-4-yl}-2-methyl-7-(trifluoromethyl)-5H-[1,3,4]thiadiazolo[3,2-a]pyrimidin-5-one] displayed an IC50 of 104 nM. Consider `O=c1c(-c2ccc(OCC(F)(F)F)cc2)c(C(F)(F)F)nc2sc(CO)cn12` [Example 33, 2-(hydroxymethyl)-6-[4-(2,2,2-trifluoroethoxy)phenyl]-7-(trifluoromethyl)-5H-[1,3]thiazolo[3,2-a]pyrimidin-5-one], for which half-maximal inhibition (IC50) was put at 0.9 nM. With `Cc1cn2c(=O)c(-c3cnn(CC(F)(F)C(F)(F)F)c3)c(C(F)(F)F)nc2o1` [Example 39, 2-methyl-6-[1-(2,2,3,3,3-pentafluoropropyl)-1H-pyrazol-4-yl]-7-(trifluoromethyl)-5H-[1,3]oxazolo[3,2-a]pyrimidin-5-one], the IC50 stood at 18.8 nM.

With `Cn1nnn2c(=O)c(-c3cnn(CC(F)(F)C(F)(F)F)c3)c(C(F)(F)F)nc12` [Example 28, 3-methyl-6-[1-(2,2,3,3,3-pentafluoropropyl)-1H-pyrazol-4-yl]-5-(trifluoromethyl)-3H,7H-[1,2,3,4]tetrazolo[1,5-a]pyrimidin-7-one], the IC50 worked out at 6 nM. The same measure for `O=C1Cn2c(nc(C(F)(F)F)c(-c3cnn(CC(F)(F)C(F)(F)F)c3)c2=O)N1` [Example 47, 6-[1-(2,2,3,3,3-pentafluoropropyl)-1H-pyrazol-4-yl]-7-(trifluoromethyl)-1H,2H,3H,5H-imidazo[1,2-a]pyrimidine-2,5-dione]: 4950 nM; for `[2H]C([2H])([2H])n1c(C)cn2c(=O)c(-c3cnn(CCC(F)(F)F)c3)c(C(F)(F)F)nc12` [Example 78, 1-(^2H3)methyl-2-methyl-7-(trifluoromethyl)-6-[1-(3,3,3-trifluoropropyl)-1H-pyrazol-4-yl]-1H,5H-imidazo[1,2-a]pyrimidin-5-one]: 28 nM. For the compound `COc1cn2c(=O)c(-c3cnn(CC(F)(F)C(F)(F)F)c3)c(C(F)(F)F)nc2n1C` [Example 71, 2-methoxy-1-methyl-6-[1-(2,2,3,3,3-pentafluoropropyl)-1H-pyrazol-4-yl]-7-(trifluoromethyl)-1H,5H-imidazo[1,2-a]pyrimidin-5-one], the half-inhibitory concentration (IC50) worked out at 32.8 nM.

Take `COc1cn2c(=O)c(-c3cnn(CCC(F)(F)F)c3)c(C(F)(F)F)nc2n1C` [Example 72, 2-methoxy-1-methyl-7-(trifluoromethyl)-6-[1-(3,3,3-trifluoropropyl)-1H-pyrazol-4-yl]-1H,5H-imidazo[1,2-a]pyrimidin-5-one]: inhibition was half-maximal at 135 nM (IC50).

Compound `Cc1cn2c(=O)c(-c3cnn(CC(F)(F)C(F)(F)F)c3)c(C(F)(F)F)nc2n1CC(C)O` (centres unmarked) [Example 64, 1-(2-hydroxypropyl)-2-methyl-6-[1-(2,2,3,3,3-pentafluoropropyl)-1H-pyrazol-4-yl]-7-(trifluoromethyl)-1H,5H-imidazo[1,2-a]pyrimidin-5-one] registered an IC50 of 239 nM. Compound `Cn1c(C2CC2)cn2c(=O)c(-c3cnn(CC(F)(F)C(F)(F)F)c3)c(C(F)(F)F)nc12` [Example 50, 2-cyclopropyl-1-methyl-6-[1-(2,2,3,3,3-pentafluoropropyl)-1H-pyrazol-4-yl]-7-(trifluoromethyl)-1H,5H-imidazo[1,2-a]pyrimidin-5-one] had a 50% inhibitory concentration (IC50) of 120 nM. This IC50 is about 2-fold lower than that of the compound before. As for `COCCn1c(C)cn2c(=O)c(-c3cnn(CC(F)(F)C(F)(F)F)c3)c(C(F)(F)F)nc12` [Example 57, 1-(2-methoxyethyl)-2-methyl-6-[1-(2,2,3,3,3-pentafluoropropyl)-1H-pyrazol-4-yl]-7-(trifluoromethyl)-1H,5H-imidazo[1,2-a]pyrimidin-5-one], the 50% inhibitory concentration (IC50) was 146 nM. `O=c1c(-c2cnn(CC(F)(F)C(F)(F)F)c2)c(C(F)(F)F)nc2n1CCS2` [Example 22, 6-[1-(2,2,3,3,3-pentafluoropropyl)-1H-pyrazol-4-yl]-7-(trifluoromethyl)-2H,3H,5H-[1,3]thiazolo[3,2-a]pyrimidin-5-one]: the concentration for half-maximal inhibition (IC50) stood at 14.3 nM.

Compound `C[C@@H]1Cn2c(nc(C(F)(F)F)c(-c3cnn(CC(F)(F)C(F)(F)F)c3)c2=O)S1` (single isomer, unassigned) [Example 114] displayed an IC50 of 49.4 nM. With `Cc1csc2nc(C(F)(F)F)c(-c3cnn(CC(F)(F)C(F)(F)F)c3)c(=O)n12` [Example 5, 3-methyl-6-[1-(2,2,3,3,3-pentafluoropropyl)-1H-pyrazol-4-yl]-7-(trifluoromethyl)-5H-[1,3]thiazolo[3,2-a]pyrimidin-5-one], the IC50 amounted to 482 nM. `Cc1nn2c(=O)c(-c3cnn(CC4COC4)c3)c(C(F)(F)F)nc2s1` [Example 29, 2-methyl-6-{1-[(oxetan-3-yl)methyl]-1H-pyrazol-4-yl}-7-(trifluoromethyl)-5H-[1,3,4]thiadiazolo[3,2-a]pyrimidin-5-one] had a half-inhibitory concentration (IC50) of 1580 nM. Turning to `CCc1nc2sc(C)nn2c(=O)c1-c1cnn(CC(F)(F)C(F)(F)F)c1` [Example 15, 7-ethyl-2-methyl-6-[1-(2,2,3,3,3-pentafluoropropyl)-1H-pyrazol-4-yl]-5H-[1,3,4]thiadiazolo[3,2-a]pyrimidin-5-one], the IC50 turned out to be 1510 nM. With `Cc1cn2c(=O)c(-c3cnn(CC(F)(F)C(F)(F)F)c3)c(C(F)(F)F)nc2n1-c1cccc(Cl)n1` [Example 101, 1-(6-chloropyridin-2-yl)-2-methyl-6-[1-(2,2,3,3,3-pentafluoropropyl)-1H-pyrazol-4-yl]-7-(trifluoromethyl)-1H,5H-imidazo[1,2-a]pyrimidin-5-one], the midpoint of inhibition, the IC50, lay at 397 nM. This IC50 is about 3.8-fold lower than that of the compound before. The same measure for `Cn1ccc2nc(C(F)(F)F)c(-c3cnn(CC(F)(F)C(F)(F)F)c3)c(=O)n21` [Example 17, 1-methyl-6-[1-(2,2,3,3,3-pentafluoropropyl)-1H-pyrazol-4-yl]-5-(trifluoromethyl)-1H,7H-pyrazolo[1,5-a]pyrimidin-7-one]: 363 nM. In the case of `O=c1c(-c2ccc(OCC(F)(F)F)cc2)c(C(F)(F)F)nc2sc(Cl)cn12` [Example 34, 2-chloro-6-[4-(2,2,2-trifluoroethoxy)phenyl]-7-(trifluoromethyl)-5H-[1,3]thiazolo[3,2-a]pyrimidin-5-one], the IC50 is 4.8 nM.

Take `Cn1cnn2c(=O)c(-c3cnn(CC(F)(F)C(F)(F)F)c3)c(C(F)(F)F)nc12` [Example 38, 3-methyl-6-[1-(2,2,3,3,3-pentafluoropropyl)-1H-pyrazol-4-yl]-5-(trifluoromethyl)-3H,7H-[1,2,4]triazolo[1,5-a]pyrimidin-7-one]: the concentration for half-maximal inhibition (IC50) was found to be 67.3 nM. In turn, `O=c1c(-c2cnn(CCC(F)(F)F)c2)c(C(F)(F)F)nc2sc(CO)nn12` [Example 46, 2-(hydroxymethyl)-7-(trifluoromethyl)-6-[1-(3,3,3-trifluoropropyl)-1H-pyrazol-4-yl]-5H-[1,3,4]thiadiazolo[3,2-a]pyrimidin-5-one] had an IC50 of 36.1 nM.
